Reference: article PMC11206519, “Multi-Endpoint Toxicological Assessment of Chrysin Loaded Oil-in-Water Emulsion System in Different Biological Models” (Nanomaterials, 2024)

What was measured:
[1] = tested on: D. melanogaster trans-heterozygous mwh+/+flr3 larvae of the ST cross; test: SMART wing spot test, mutagenicity, ST cross; type: in vivo, Drosophila melanogaster; settings: for Statistical diagnosis, Small Single / Statistical diagnosis, Total Spots: vs DI
Protocol: (§1) The somatic mutation and recombination test, or the wing spot test, using D. melanogaster was employed as an in vivo system to assess the mutagenicity and anti-mutagenicity of chrysin-ES. Two different crosses were conducted: (i) a standard cross (ST) and (ii) a high bioactivation cross (HB) [18]. The standard cross larvae were obtained from virgin female of flr3/TM3, Ser crossed with males of mwh/mwh, while the HB cross larvae expressing cytochrome P450 enzymes involved in xenobiotic biotransformation were obtained from virgin females of ORR/ORR; flr^3/In (3LR) TM3, ri p^psep l (3)89Aa bx^34e e Bd^s crossed with males of mwh/mwh. The flies were cultured at a constant temperature of 25 ± 1 °C and 60–70% RH at photoperiod 12:12 (light/dark). To evaluate the mutagenicity of chrysin and chrysin-ES, a hundred larva F1 progenies derived from the above crossing were fed with instant Drosophila medium (Formula 4-24®), Carolina, Burlington, NC, USA) containing chrysin or chrysin-ES (20–120 µg/mL). DI was used as a negative control, while 20 mM urethane (URE) was used as a positive control. The larvae were reared on each medium until pupation at 25 °C. After that, forty wings of surviving flies in each group were collected for mutant analysis. The mutant spots on the wings, including small single spots, large single spots, and twin spots, were counted.

[2] = tested on: D. melanogaster trans-heterozygous mwh+/+flr3 larvae of the HB cross; test: SMART wing spot test, mutagenicity, HB cross; type: in vivo, Drosophila melanogaster
Protocol: as §1

[3] = cited from earlier work
Sprague Dawley rats = settings: ref 45 (Yao et al.), cited from earlier work

SMILES: O=c1cc(-c2ccccc2)oc2cc(O)cc(O)c12 [Chrysin, 5,7-dihydroxyflavone]
- Mutant spots per individual (number of spots), Large Single ([1]; 20 µg/mL): 0 (0)
- Mutant spots per individual (number of spots), Small Single ([1]; 20 µg/mL): 0.38 (15)
- Mutant spots per individual (number of spots), Total Spots ([1]; 20 µg/mL): 0.38 (15)
- Mutant spots per individual (number of spots), Twin ([1]; 20 µg/mL): 0 (0)
- Statistical diagnosis, Small Single ([1]; 20 µg/mL): −
- Statistical diagnosis, Total Spots ([1]; 20 µg/mL): −
- Mutant spots per individual (number of spots), Large Single ([1]; 40 µg/mL): 0.03 (1)
- Mutant spots per individual (number of spots), Total Spots ([1]; 40 µg/mL): 0.38 (15)
- Mutant spots per individual (number of spots), Twin ([1]; 40 µg/mL): 0 (0)
- Statistical diagnosis, Small Single ([1]; 40 µg/mL): −
- Statistical diagnosis, Total Spots ([1]; 40 µg/mL): −
- Mutant spots per individual (number of spots), Large Single ([1]; 80 µg/mL): 0 (0)
- Mutant spots per individual (number of spots), Small Single ([1]; 80 µg/mL): 0.58 (23)
- Mutant spots per individual (number of spots), Total Spots ([1]; 80 µg/mL): 0.58 (23)
- Mutant spots per individual (number of spots), Twin ([1]; 80 µg/mL): 0 (0)
- Statistical diagnosis, Small Single ([1]; 80 µg/mL): −
- Statistical diagnosis, Total Spots ([1]; 80 µg/mL): −
- Mutant spots per individual (number of spots), Large Single ([1]; 120 µg/mL): 0.08 (3)
- Mutant spots per individual (number of spots), Small Single ([1]; 120 µg/mL): 0.83 (33)
- Mutant spots per individual (number of spots), Total Spots ([1]; 120 µg/mL): 0.90 (36)
- Mutant spots per individual (number of spots), Twin ([1]; 120 µg/mL): 0 (0)
- Statistical diagnosis, Small Single ([1]; 120 µg/mL): −
- Statistical diagnosis, Total Spots ([1]; 120 µg/mL): −
- mutagenicity in SMART ([1]; 20–120 μg/mL, ST and HB cross): non-mutagenic
- Mutant spots per individual (number of spots), Large Single ([2]; 20 µg/mL): 0.03 (1)
- Mutant spots per individual (number of spots), Total Spots ([2]; 20 µg/mL): 0.23 (9)
- Mutant spots per individual (number of spots), Twin ([2]; 20 µg/mL): 0.03 (1)
- Mutant spots per individual (number of spots), Large Single ([2]; 40 µg/mL): 0.03 (1)
- Mutant spots per individual (number of spots), Total Spots ([2]; 40 µg/mL): 0.15 (6)
- Mutant spots per individual (number of spots), Twin ([2]; 40 µg/mL): 0 (0)
- Mutant spots per individual (number of spots), Large Single ([2]; 80 µg/mL): 0.03 (1)
- Mutant spots per individual (number of spots), Total Spots ([2]; 80 µg/mL): 0.15 (6)
- Mutant spots per individual (number of spots), Twin ([2]; 80 µg/mL): 0 (0)
- Mutant spots per individual (number of spots), Large Single ([2]; 120 µg/mL): 0 (0)
- Mutant spots per individual (number of spots), Small Single ([2]; 120 µg/mL): 0.08 (3)
- Mutant spots per individual (number of spots), Total Spots ([2]; 120 µg/mL): 0.08 (3)
- Mutant spots per individual (number of spots), Twin ([2]; 120 µg/mL): 0 (0)
- Statistical diagnosis, Small Single ([2]; 120 µg/mL, vs DI): −
- Statistical diagnosis, Total Spots ([2]; 120 µg/mL, vs DI): −
- chrysin uptake eliminated in the feces [3]: 98%
- mortality (Sprague Dawley rats; single oral 5000 mg/kg BW): 40%
- LD50 (Sprague Dawley rats; single oral administration): ~5000 mg/kg BW
